Patent US20210293825A1, “METHODS FOR PRECISION THERAPEUTIC TARGETING OF HUMAN CANCER CELL MOTILITY AND KITS THEREOF” (UNITED STATES GOVERNMENT AS REPRESENTED BY THE DEPARTMENT …, priority 2018, published 2021)

How the values were obtained:
[1] = tested on: PC3-M cells; assay: Boyden chamber cell invasion assay, PC3-M cells; type: cell-based, human
Protocol: Following the synthetic strategy outlined in FIG. 1a, 4′,5,7-trihydroxyisoflavone was used as the chemical scaffold. […] Note, demethylation within the cell cannot be predicted. Therefore, the loss of function was considered to be informative for methylated compounds. […] This adds further evidence of the importance of the C4′-hydroxyl for activity. […] For cell invasion, PC3-M cells were treated with 10 μM compound for a total of 3 days, and cell invasion assays were run at the end of the 3 day period, in the presence of compound. Values are the mean±SEM of three separate experiments, each run in replicates of N=3. […] Values are the mean±SEM of a single experiment, in replicates of N=4, repeated at least once (also N=4). […] The initial structure-activity relationship (SAR) data informed the second round of compound synthesis. […] Compared to 4′,5,7-trihydroxyisoflavone, KBU2046 is non-planar, lacks hydroxyl groups, and particularly those that mediate ER binding, is halogen-substituted, and has a distinctly different biological profile. These characteristics place KBU2046 in a chemically distinct class, compared to the starting compound.
Cell Invasion Assays. Boyden chamber cell invasion assays were performed as previously described^9, using either denatured collagen (BD Biosciences) or type IV human collagen (BD Biosciences), with the experiments repeated, each in N=4 replicates. In some experiments, as indicated, cells were transfected with an expression plasmid, using Lipofectamine 2000™ (Invitrogen), or with siRNA, using DharmaFect Duo (Thermo Scientific) and co-transfected with β-Galactosidase (Plasmid pCMV⋅SPORT-βgal; Life Technology).
The initial round of synthesis was designed to examine the removal of individual chemical fragments. In this manner, the importance of these functional groups in mediating efficacy (inhibition of cell invasion) could be determined. […] Initial assays were performed with PC3 and PC3-M cells. However, as these studies yielded similar findings, subsequent screening assays utilized only PC3-M cells. In designing chemical synthetic routes, priority was given to efficacy and toxicity parameters. […] These additional design features included removal of fragments that mediated genistein binding to the estrogen receptor (ER), as determined by ER-genistein 3D x-ray crystal structures (Protein Data Base IDs: 1X7R and 1X7J, for crystal structures of ERα and ERβ with bound genistein, respectively). These features also included removal of chemical fragments that are considered to increase susceptibility to rapid metabolism, for example by the cytochrome P450 (CYP) pathway. The final feature involved incorporation of chemical characteristics previously shown to be associated with effective drugs and which together generally impart more favorable pharmacologic properties, including those described by Lipinski et al. (Lipinski, C. A. et al., Adv Drug Deliv Rev 46, 3-26 (2001)).

[2] = molecular target: T1, CDC37 (Homo sapiens, UniProt Q16543); assay: Biophysical binding assays and DARTS, isolated CDC37; conditions: ITC, thermal shift, biolayer interferometry, dynamic light scattering, DARTS
T1 construct: made in house; host or cells: BL-21 DE-3 E. coli, pET15b
T1 sequence (Q16543 whole entry): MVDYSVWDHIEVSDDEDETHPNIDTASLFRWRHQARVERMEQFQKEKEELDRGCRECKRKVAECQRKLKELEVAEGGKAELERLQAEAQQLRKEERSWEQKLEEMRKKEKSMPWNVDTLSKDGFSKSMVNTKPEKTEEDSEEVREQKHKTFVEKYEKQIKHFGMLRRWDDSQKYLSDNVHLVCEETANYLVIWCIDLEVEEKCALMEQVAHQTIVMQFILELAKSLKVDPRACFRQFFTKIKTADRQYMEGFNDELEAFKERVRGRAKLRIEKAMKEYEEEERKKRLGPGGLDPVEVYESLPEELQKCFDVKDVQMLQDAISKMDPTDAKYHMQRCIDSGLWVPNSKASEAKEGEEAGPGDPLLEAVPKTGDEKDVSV
Protocol: Studies used purified recombinant HSP90β or CDC37. […] For DARTS assay, HSP90β or CDC37 were individually pre-incubated with KBU2046, thermolysin added, and reaction products were separated by SDS PAGE and visualized by silver stain (depicted above). NTco—no thermolysin control. However, when the DARTS assay was conducted with both HSP90β and CDC37 present, KBU2046 protected both proteins from degradation in a concentration-dependent manner (see, FIG. 5a).
DARTS provides a sensitive measure of ligand-induced changes in protein structure and dynamics by measuring the ability of a ligand to protect its target from protease digestion (Lomenick, B. et al., Proc Natl Acad Sci USA 106, 21984-9 (2009)). […] The intensity of the CDC37 band increased, that of the HSP90β degradation product decreased, and both effects were statistically significant, concentration-dependent and were evident at 10 nM. […] Further, these findings also indicate that KBU2046 is not acting as a classical HSP90 inhibitor.
Biophysical and Biochemical Binding Assays. […]

## O=C1c2ccccc2OCC1c1ccc(F)cc1 (racemic) [KBU2046, (±)-3(4-fluorophenyl)chroman-4-one]
[1]; 10 μM compound, 3 days
  effect on cell invasion: anti-invasive efficacy at least equal to that of the starting compound
[1]; (S226A)-HSP90β transfected PC3-M cells
  inhibition of cell invasion: does not further inhibit cell invasion
[1]; (S226D)-HSP90β transfected PC3-M cells
  inhibition of cell invasion: did not significantly inhibit cell invasion
[1]; PC3-M cells, ±TGFβ
  anti-invasion efficacy under TGFβ-stimulated invasion: retains efficacy
[1]; VC and WT-HSP90β transfected PC3-M cells
  inhibition of cell invasion: significantly inhibited invasion
[1]; siRNA-mediated HSP90β knockdown
  efficacy on cell invasion: abrogated KBU2046 efficacy
[1]; vector control (VC) transfected PC3-M cells
  inhibition of cell invasion: significantly inhibits invasion
[2]
  binding to CDC37: no evidence of KBU2046 binding
